Consider 12 compounds from patent publication US20140058103A1, “Inhibitors of PI3K-Delta and Methods of Their Use and Manufacture” (Exelixis, Inc., priority 2010, published 2014).

Where only a bound is given, the exact number is not on record here.

In this assay the target is PI3K delta (Homo sapiens, UniProt O00329). Put plainly: Luciferase-coupled chemiluminescence kinase assay (ATP consumption, KinaseGlo). It is filed as biochemical. The method, then:
Kinase activity and compound inhibition were investigated using one or more of the assay formats described below. The ATP concentrations used in the various assays were approximately equal to or less than the KM for each of the respective kinases. Dose-response experiments were performed using an intra-plate dilution scheme with 10 different inhibitor concentrations in a 384-well microtiter plate. IC50 values were calculated by nonlinear regression analysis using the four-parameter equation listed below:
Y=min+(max−min)/(1+(X/IC50)^N) Equation 1
Typically N should approximate unity. Curve fitting was performed using XLFit or ActivityBase.
Kinase activity is measured as the percent of ATP consumed following the kinase reaction using luciferase-luciferin-coupled chemiluminescence. […] Kinase reactions were initiated by combining test compounds, kinase, and ATP in a 20 μL volume (6 μL volume for 1536-well plate). The reaction mixture was incubated at ambient temperature for 2 h. Following the kinase reaction, a 20 μL (or […] for 1536-well plate) aliquot of KinaseGlo (Promega) was added and the chemiluminescence signal measured using an EnVision plate reader (Perkin Elmer).

Chain of PI3K delta (O00329 whole entry): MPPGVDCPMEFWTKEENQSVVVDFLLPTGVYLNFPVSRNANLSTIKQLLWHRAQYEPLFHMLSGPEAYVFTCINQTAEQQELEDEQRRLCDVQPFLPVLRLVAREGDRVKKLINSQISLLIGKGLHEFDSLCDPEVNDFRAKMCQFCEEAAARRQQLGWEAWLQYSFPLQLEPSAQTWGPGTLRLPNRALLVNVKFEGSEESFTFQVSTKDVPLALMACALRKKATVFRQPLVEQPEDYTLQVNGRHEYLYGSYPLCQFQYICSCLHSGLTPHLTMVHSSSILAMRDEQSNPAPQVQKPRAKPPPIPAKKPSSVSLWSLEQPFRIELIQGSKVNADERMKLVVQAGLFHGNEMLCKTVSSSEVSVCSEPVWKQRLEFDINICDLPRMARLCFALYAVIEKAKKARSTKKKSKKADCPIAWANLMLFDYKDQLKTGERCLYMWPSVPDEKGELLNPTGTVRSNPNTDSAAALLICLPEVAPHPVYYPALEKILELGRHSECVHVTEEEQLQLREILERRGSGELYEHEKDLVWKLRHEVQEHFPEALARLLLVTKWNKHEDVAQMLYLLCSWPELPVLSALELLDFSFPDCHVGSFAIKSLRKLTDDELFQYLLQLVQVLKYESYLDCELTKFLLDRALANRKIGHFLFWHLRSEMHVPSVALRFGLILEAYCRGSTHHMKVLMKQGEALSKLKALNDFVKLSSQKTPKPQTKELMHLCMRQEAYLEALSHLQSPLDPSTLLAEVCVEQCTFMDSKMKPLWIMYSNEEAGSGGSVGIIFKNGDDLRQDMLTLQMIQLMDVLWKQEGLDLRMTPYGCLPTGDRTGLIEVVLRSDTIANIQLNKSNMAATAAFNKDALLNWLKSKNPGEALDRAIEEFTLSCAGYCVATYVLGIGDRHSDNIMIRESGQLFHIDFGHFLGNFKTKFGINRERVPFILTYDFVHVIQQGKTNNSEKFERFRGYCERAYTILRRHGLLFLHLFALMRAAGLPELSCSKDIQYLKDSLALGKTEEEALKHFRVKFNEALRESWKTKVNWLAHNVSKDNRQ
Chain of PI3K delta (P27986 whole entry partner): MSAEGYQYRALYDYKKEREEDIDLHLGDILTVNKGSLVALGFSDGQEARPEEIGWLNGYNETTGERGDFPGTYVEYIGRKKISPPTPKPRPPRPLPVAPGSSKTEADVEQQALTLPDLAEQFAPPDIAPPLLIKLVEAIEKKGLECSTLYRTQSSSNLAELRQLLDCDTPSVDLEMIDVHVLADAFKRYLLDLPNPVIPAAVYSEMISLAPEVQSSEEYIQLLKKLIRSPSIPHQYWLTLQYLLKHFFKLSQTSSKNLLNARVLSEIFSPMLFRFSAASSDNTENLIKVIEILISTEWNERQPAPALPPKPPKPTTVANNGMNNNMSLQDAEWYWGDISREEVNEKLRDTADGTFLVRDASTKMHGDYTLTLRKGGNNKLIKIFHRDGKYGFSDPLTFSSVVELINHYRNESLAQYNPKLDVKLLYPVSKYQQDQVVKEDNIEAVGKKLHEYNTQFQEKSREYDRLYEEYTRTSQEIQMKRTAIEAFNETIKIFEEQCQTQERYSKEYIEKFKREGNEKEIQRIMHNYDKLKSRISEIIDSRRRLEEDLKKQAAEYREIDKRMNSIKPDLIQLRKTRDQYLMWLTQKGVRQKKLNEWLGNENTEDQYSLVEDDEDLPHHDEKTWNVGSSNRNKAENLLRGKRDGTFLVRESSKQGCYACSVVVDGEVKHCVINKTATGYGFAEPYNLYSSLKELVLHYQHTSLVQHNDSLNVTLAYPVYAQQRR

As to `Cn1c(C(=O)NCCO)nc2c(N3CCC(n4c(=O)[nH]c5ccccc54)CC3)ncnc21` [Compound 55, N-(2-hydroxyethyl)-9-methyl-6-[4-(2-oxo-2,3-dihydro-1H-benzimidazol-1-yl)piperidin-1-yl]-9H-purine-8-carboxamide], the half-maximal inhibitory concentration (IC50) (commonly the concentration needed to halve the response being measured) is 50 to 250 nM.

The compound `COc1ccccc1CNC(=O)c1nc2c(N3CCC(n4c(=O)[nH]c5ccccc54)CC3)ncnc2n1C` [Compound 56, 9-methyl-N-{[2-(methyloxy)phenyl]methyl}-6-[4-(2-oxo-2,3-dihydro-1H-benzimidazol-1-yl)piperidin-1-yl]-9H-purine-8-carboxamide] showed an IC50 of 250 to 500 nM.

For `Cc1ccccc1CNC(=O)c1nc2c(N3CCC(n4c(=O)[nH]c5ccccc54)CC3)ncnc2n1C` [Compound 57, 9-methyl-N-[(2-methylphenyl)methyl]-6-[4-(2-oxo-2,3-dihydro-1H-benzimidazol-1-yl)piperidin-1-yl]-9H-purine-8-carboxamide], the IC50 fell in the range of 250 to 500 nM.

`Cn1c(C(=O)NCc2cccc(F)c2)nc2c(N3CCC(n4c(=O)[nH]c5ccccc54)CC3)ncnc21` [Compound 58, N-[(3-fluorophenyl)methyl]-9-methyl-6-[4-(2-oxo-2,3-dihydro-1H-benzimidazol-1-yl)piperidin-1-yl]-9H-purine-8-carboxamide] came in with an IC50 of 50 to 250 nM.

Consider `COc1ccc(CNC(=O)c2nc3c(N4CCC(n5c(=O)[nH]c6ccccc65)CC4)ncnc3n2C)cc1` [Compound 59, 9-methyl-N-{[4-(methyloxy)phenyl]methyl}-6-[4-(2-oxo-2,3-dihydro-1H-benzimidazol-1-yl)piperidin-1-yl]-9H-purine-8-carboxamide], for which the IC50 lay within 250 to 500 nM.

`Cn1c(C(=O)NCC(F)(F)F)nc2c(N3CCC(n4c(=O)[nH]c5ccccc54)CC3)ncnc21` [Compound 60, 9-methyl-6-[4-(2-oxo-2,3-dihydro-1H-benzimidazol-1-yl)piperidin-1-yl]-N-(2,2,2-trifluoromethyl)-9H-purine-8-carboxamide] registered an IC50 of less than 50 nM.

As for `CC(CNC(=O)c1nc2c(N3CCC(n4c(=O)[nH]c5ccccc54)CC3)ncnc2n1C)c1ccccc1` (stereo not drawn) [Compound 61, 9-methyl-6-[4-(2-oxo-2,3-dihydro-1H-benzimidazol-1-yl)piperidin-1-yl]-N-(2-phenylpropyl)-9H-purine-8-carboxamide], the IC50 fell in the range of 250 to 500 nM.

In turn, `CCNC(=O)c1nc2c(N3CCC(n4c(=O)[nH]c5ccccc54)CC3)ncnc2n1C` [Compound 62, N-ethyl-9-methyl-6-[4-(2-oxo-2,3-dihydro-1H-benzimidazol-1-yl)piperidin-1-yl]-9H-purine-8-carboxamide] gave an IC50 of 50 to 250 nM.

For the compound `Cn1c(C(=O)NCCc2ccc(Cl)cc2)nc2c(N3CCC(n4c(=O)[nH]c5ccccc54)CC3)ncnc21` [Compound 63, N-[2-(4-chlorophenyl)ethyl]-9-methyl-6-[4-(2-oxo-2,3-dihydro-1H-benzimidazol-1-yl)piperidin-1-yl]-9H-purine-8-carboxamide], the IC50 lay in the range of 500 to 1500 nM.

For the compound `Cc1ccc(CCNC(=O)c2nc3c(N4CCC(n5c(=O)[nH]c6ccccc65)CC4)ncnc3n2C)cc1` [Compound 64, 9-methyl-N-[2-(4-methylphenyl)ethyl]-6-[4-(2-oxo-2,3-dihydro-1H-benzimidazol-1-yl)piperidin-1-yl]-9H-purine-8-carboxamide], the concentration for half-maximal inhibition (IC50) lay in the range of 500 to 1500 nM.

`Cn1c(C(=O)NCCCc2ccccc2)nc2c(N3CCC(n4c(=O)[nH]c5ccccc54)CC3)ncnc21` [Compound 65, 9-methyl-6-[4-(2-oxo-2,3-dihydro-1H-benzimidazol-1-yl)piperidin-1-yl]-N-(3-phenylpropyl)-9H-purine-8-carboxamide] yielded an IC50 of 500 to 1500 nM.

On to `Cn1c(C(=O)NCc2ccc(F)cc2F)nc2c(N3CCC(n4c(=O)[nH]c5ccccc54)CC3)ncnc21` [Compound 66, N-[(2,4-difluorophenyl)methyl]-9-methyl-6-[4-(2-oxo-2,3-dihydro-1H-benzimidazol-1-yl)piperidin-1-yl]-9H-purine-8-carboxamide], for which the concentration for half-maximal inhibition (IC50) fell in the range of 500 to 1500 nM.
